Like-named read-outs stand apart in the source and are kept apart here.
How the values were obtained:
[1] = system: any adenosine receptor subtype; assay: Radioligand competition binding, stated for any adenosine receptor subtype; set-up: species or system human; details: for binding affinity in words: any adenosine receptor subtype, data not shown; for Ki: read-out: Ki at any of the adenosine receptor subtypes, any subtype
[2] = target: T1, A1 receptor (Homo sapiens, UniProt P30542); format: biochemical; details: for maximal inhibition of forskolin-stimulated adenylyl cyclase: compared with CCPA, n = 3
T1 sequence (P30542 1-326): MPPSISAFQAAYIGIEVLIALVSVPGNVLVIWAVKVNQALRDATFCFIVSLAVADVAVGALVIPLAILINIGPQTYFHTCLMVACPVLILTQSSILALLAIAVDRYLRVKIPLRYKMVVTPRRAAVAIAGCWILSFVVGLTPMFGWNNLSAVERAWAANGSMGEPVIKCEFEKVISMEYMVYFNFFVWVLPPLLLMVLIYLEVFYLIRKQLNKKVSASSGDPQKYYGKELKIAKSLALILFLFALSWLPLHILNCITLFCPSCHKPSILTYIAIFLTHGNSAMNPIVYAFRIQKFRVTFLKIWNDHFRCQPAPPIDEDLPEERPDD

[3] = target: A2A adenosine receptor (Homo sapiens, UniProt P29274); assay: A2A receptor-mediated stimulation of adenylyl cyclase, CHO membranes; format: biochemical; details: for efficacy compared to the full agonist NECA: A2A stimulation of adenylyl cyclase, 1 μM NECA control; for agonist character at the A2A adenosine receptor: compared to NECA
Chain of A2A adenosine receptor (P29274 whole entry): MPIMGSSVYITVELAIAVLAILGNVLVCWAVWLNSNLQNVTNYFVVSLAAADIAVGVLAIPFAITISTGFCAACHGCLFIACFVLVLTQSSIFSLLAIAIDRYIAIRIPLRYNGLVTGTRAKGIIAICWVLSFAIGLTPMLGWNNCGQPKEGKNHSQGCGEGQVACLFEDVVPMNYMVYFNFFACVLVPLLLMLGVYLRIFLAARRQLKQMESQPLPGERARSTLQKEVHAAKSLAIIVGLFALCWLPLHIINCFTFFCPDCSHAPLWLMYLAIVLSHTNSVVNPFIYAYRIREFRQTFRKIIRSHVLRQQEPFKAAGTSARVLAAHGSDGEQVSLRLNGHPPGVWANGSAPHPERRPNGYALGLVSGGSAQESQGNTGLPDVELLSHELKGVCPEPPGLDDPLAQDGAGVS

[4] = target: T2, adenosine A3 receptor (Homo sapiens, UniProt P0DMS8); assay: Radioligand competition binding, [3H]HEMADO, membranes of transfected CHO cells
T2 sequence (P0DMS8 1-318): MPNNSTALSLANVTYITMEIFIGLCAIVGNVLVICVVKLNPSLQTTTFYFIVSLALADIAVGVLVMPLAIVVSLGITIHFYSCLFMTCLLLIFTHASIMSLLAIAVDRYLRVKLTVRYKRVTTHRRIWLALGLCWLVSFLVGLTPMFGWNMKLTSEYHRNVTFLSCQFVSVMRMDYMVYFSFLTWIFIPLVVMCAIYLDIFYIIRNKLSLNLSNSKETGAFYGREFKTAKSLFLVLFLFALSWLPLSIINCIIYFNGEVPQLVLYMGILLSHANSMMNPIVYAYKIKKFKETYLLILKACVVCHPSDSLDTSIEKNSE

[5] = system: adenosine receptor subtype A1; details: murine models; ref Lorenzen et al. 1998; cited from earlier work
[6] = target: T3, adenosine A1 receptor (Homo sapiens, UniProt P30542); assay: Radioligand competition binding, [3H]CCPA, membranes of transfected CHO cells; details: Ki A1 (curve of Figure 2), single experiment
T3 sequence (P30542 1-326): T1 sequence (P30542 1-326)

[7] = target: adenosine A2A receptor (Homo sapiens, UniProt P29274); assay: Radioligand competition binding, [3H]NECA, membranes of transfected CHO cells; details: Ki A2A (curve of Figure 2B), single experiment
Chain of adenosine A2A receptor (P29274 whole entry): as the sequence (P29274 whole entry) above

[8] = target: T4, A2B receptor (Homo sapiens, UniProt P29275); assay: A2B receptor-mediated adenylyl cyclase activity, CHO membranes; format: biochemical
T4 sequence (P29275 1-332): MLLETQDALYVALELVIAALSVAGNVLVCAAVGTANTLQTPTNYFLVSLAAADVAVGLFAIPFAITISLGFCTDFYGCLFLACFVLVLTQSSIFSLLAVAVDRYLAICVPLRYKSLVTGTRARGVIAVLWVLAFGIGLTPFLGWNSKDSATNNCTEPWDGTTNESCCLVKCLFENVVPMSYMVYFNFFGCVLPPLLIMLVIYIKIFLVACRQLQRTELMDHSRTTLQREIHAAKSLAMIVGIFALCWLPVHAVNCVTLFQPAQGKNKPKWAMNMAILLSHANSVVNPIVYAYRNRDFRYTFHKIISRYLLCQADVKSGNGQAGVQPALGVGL

[9] = hematopoietic cell transplant; ref Beitinjaneh et al. 2011, Chun et al. 1986, Ding et al. 2008; cited from earlier work

binding affinity in words [1]	Ki [1]	SMILES	IC50 [2]	maximal inhibition of forskolin-stimulated adenylyl cyclase [2]	IC50 [3]	efficacy compared to the full agonist NECA [3]	agonist character at the A2A adenosine receptor [3]	Ki [4]	Ki [6]	other results
no detectable affinity		Nc1nc(F)nc2c1ncn2[C@@H]1O[C@H](COP(=O)(O)O)[C@@H](O)[C@@H]1O [Fludarabine monophosphate, 2-fluoroadenine-9-β-D-arabinofuranoside-5′phosphate]								
		Nc1nc(Cl)nc2c1ncn2[C@H]1C[C@H](O)[C@@H](CO)O1 [cladribine, 2-chloro-2′-deoxyadenosine]	> 10 µM	comparable to the full A1 receptor agonist CCPA	16.1 µM	~40%	partial agonists	> 100 µM	1.64 µM	agonist character at adenosine receptor subtype A1 [5]: partial agonist
		Nc1nc(Cl)nc2c1ncn2[C@@H]1O[C@H](CO)[C@@H](O)[C@@H]1F [clofarabine, 2-chloro-2′-arabino-fluoro-2′-deoxyadenosine]		comparable to the full A1 receptor agonist CCPA	9.8 µM	about 50%	partial agonists		0.248 µM	Ki [7]: 17.5 µM; efficacy in decreasing adenylyl cyclase activity, comparison ([2]; 10 μM, versus equivalent concentrations of fludarabine or cladribine): more efficacious; IC50 ([2]; IC50 A1 agonist, adenylyl cyclase inhibition, values in text and abstract): 3.1 µM; Ki ([4]; Ki A3 (curve of Figure 2B), [3H]HEMADO, single experiment): 8.28 µM; EC50 [8]: > 100 µM
no detectable affinity	> 100 µM	Nc1ccn([C@@H]2O[C@H](CO)[C@@H](O)[C@@H]2O)c(=O)n1 [cytarabine, cytosine β-D-arabinofuranoside]								
		Nc1nc(F)nc2c1ncn2[C@@H]1O[C@H](CO)[C@@H](O)[C@@H]1O [fludarabine, 2-fluoroadenine-9-β-D-arabinofuranoside]	> 10 µM	comparable to the full A1 receptor agonist CCPA				> 100 µM	2.24 µM	patients experiencing mild to severe neurological toxicities [9]: 2-10%
no detectable affinity	> 100 µM	Nc1ccn([C@@H]2O[C@H](CO)[C@@H](O)C2(F)F)c(=O)n1 [gemcitabine, 2′,2′-difluoro-2′-deoxycytidine]								

Source: article PMC3831620 (Naunyn-Schmiedeberg's archives of pharmacology, 2012)
